The numbers were not newly measured in US8993486B2, “Ultra-high throughput screening methods to detect synergistic drug interactions” (Lankenau Institute for Medical Research Chemical Genomics …, priority 2010, dated 2015), which cites them from elsewhere.

The subject of this data set is diverse fungal pathogens.

On to `CC(=O)N1CCN(c2ccc(OCC3COC(Cn4ccnc4)(c4ccc(Cl)cc4Cl)O3)cc2)CC1` (centres unmarked) [ketoconazole], for which, where the note is “low dosage”, the fungicidal activity alone result is reported as “little detectable fungicidal activity”.

For beauvericin, for the setting “checkerboard assay, diverse fungal pathogens”, the “synergy with ketoconazole (KTC) activity” value was “dramatically synergized KTC activity”.
